Consider 14 compounds from PubChem BioAssay (NCI).

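Five concentrations, 48 hours, 96-well plates. GI50: concentration for 50% inhibition of growth. TGI denotes the concentration required for complete inhibition of growth.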

Among the test systems are NCI-H23 lung; M14 melanoma; SNB-19 CNS; KM12 colon; NCI-H226 lung; SF-295 CNS; SNB-75 CNS; MALME-3M melanoma; IGROV1 ovarian; HS 578T breast.
Common to all, as to test: NCI tumour cell line growth inhibition, 48 h

As for `O=C(Nc1c(O)[nH]c(=S)[nH]c1=O)c1ccccn1`, the TGI with NCI-H23 lung, in the assay with M14 melanoma, in the assay with SNB-19 CNS, in the assay with KM12 colon, with NCI-H226 lung and with SF-295 CNS was > 100 µM in each case. In addition, the TGI with SNB-75 CNS, with MALME-3M melanoma and in the assay on IGROV1 ovarian was > 100 µM in each case.

Regarding `CC12CC3C(CC1SCC(=O)O2)C3(C)C` (centres undefined), the TGI with NCI-H23 lung, in the assay on M14 melanoma, in the assay with KM12 colon, in the assay with SF-295 CNS, with SNB-75 CNS and in the assay with MALME-3M melanoma was > 100 µM throughout. Besides, the TGI in the assay on IGROV1 ovarian was > 100 µM.

As for `CCOC(=O)c1cn(-c2ccccc2)c(=S)n2c1nc1ccccc12`, the TGI with NCI-H23 lung was > 100 µM; in the assay with M14 melanoma, > 100 µM; in the assay with SNB-19 CNS, > 100 µM; with KM12 colon, > 100 µM; in the assay with NCI-H226 lung, > 88.1 µM; in the assay with SF-295 CNS, > 100 µM. For the same compound, the TGI in the assay with SNB-75 CNS and in the assay on IGROV1 ovarian was > 100 µM in each case.

`C[N+]1(C)CCCC1C(=O)[O-]` (centres undefined): the TGI with NCI-H23 lung, in the assay on M14 melanoma, in the assay with SNB-19 CNS, in the assay on KM12 colon, in the assay with NCI-H226 lung and in the assay with SF-295 CNS was > 100 µM each time. Besides, the TGI in the assay on SNB-75 CNS, with MALME-3M melanoma and in the assay with IGROV1 ovarian was > 100 µM each time.

Turning to `CC[n+]1cnc(N)c2c(-c3ccc(Cl)cc3)cn(-c3ccc(C)cc3)c21`, the TGI in the assay on NCI-H23 lung worked out at 35.4 µM; in the assay on M14 melanoma, 4.14 µM; with SNB-19 CNS, 28.8 µM; with KM12 colon, 30.7 µM; with NCI-H226 lung, 28.2 µM; in the assay on SF-295 CNS, 25.3 µM. Besides, the figures for the TGI with SNB-75 CNS, with MALME-3M melanoma and in the assay with IGROV1 ovarian were 14.1 µM, 25.5 µM and 26.5 µM, respectively.

Consider `Cc1ccc(S(=O)(=O)N/N=C/c2oc(-c3cccc([N+](=O)[O-])c3)c(-c3cccc([N+](=O)[O-])c3)c2[N+](=O)[O-])cc1`, for which the TGI in the assay on NCI-H23 lung, with M14 melanoma, in the assay on SNB-19 CNS, with KM12 colon, with NCI-H226 lung and in the assay on SF-295 CNS was > 100 µM each time. The results for the TGI in the assay with SNB-75 CNS, with MALME-3M melanoma and in the assay on IGROV1 ovarian were > 100 µM, > 100 µM and 91.2 µM, respectively.

As to `CO/C(=N\N=C\c1cc(OC)ccc1OC)c1ccncc1`, the TGI in the assay on NCI-H23 lung, in the assay with SNB-19 CNS, in the assay with KM12 colon, in the assay with NCI-H226 lung, in the assay on SF-295 CNS and in the assay on SNB-75 CNS was > 10 µM throughout. The TGI in the assay with MALME-3M melanoma and with IGROV1 ovarian was > 10 µM throughout.

As to `Clc1ccc(-c2ccc(-c3nnc(CCc4nnc(-c5ccc(-c6ccc(Cl)cc6)o5)o4)o3)o2)cc1`, the TGI in the assay with NCI-H23 lung, in the assay with M14 melanoma, in the assay on SNB-19 CNS, in the assay on KM12 colon, in the assay with NCI-H226 lung and in the assay on SF-295 CNS was > 100 µM each time. For the same compound, the TGI in the assay on IGROV1 ovarian was > 100 µM; in the assay with HS 578T breast it was 86 µM.

On to `Cc1ccc(C2CC(=O)CC(c3ccc(C)cc3)C23C(=O)NC(=O)NC3=O)cc1` (centres undefined), for which the TGI in the assay on NCI-H23 lung, in the assay on M14 melanoma, in the assay on SNB-19 CNS, in the assay on KM12 colon, in the assay on NCI-H226 lung and with SF-295 CNS was > 100 µM each time. Also, the TGI with SNB-75 CNS, in the assay on MALME-3M melanoma and with IGROV1 ovarian was > 100 µM each time.

Consider `CC(=O)OCC1OC(Nc2[nH]c(=O)n(C)c(=O)c2-c2csc(N)n2)C(OC(C)=O)C(OC(C)=O)C1OC(C)=O` (centres undefined), for which the TGI in the assay on NCI-H23 lung, with M14 melanoma, with SNB-19 CNS, in the assay with KM12 colon, with NCI-H226 lung and in the assay on SF-295 CNS was > 100 µM throughout. Besides, the TGI with SNB-75 CNS, with MALME-3M melanoma and in the assay on IGROV1 ovarian was > 100 µM in each case.

Take `COc1c2c(c3c(c1C1OC(C)[C@@H](C)O1)CC(C)(C)O3)C(=O)c1ccccc1C2=O` (some centres undefined): the TGI in the assay on NCI-H23 lung, in the assay on M14 melanoma, in the assay on SNB-19 CNS, in the assay on KM12 colon, with NCI-H226 lung and with SF-295 CNS was > 100 µM each time. The TGI in the assay on SNB-75 CNS, in the assay with MALME-3M melanoma and in the assay with IGROV1 ovarian was > 100 µM in each case.

In the case of `O=S(=O)(Oc1ccc2oc3ccccc3c2c1-c1c(OS(=O)(=O)C(F)(F)F)ccc2oc3ccccc3c12)C(F)(F)F`, the TGI in the assay with NCI-H23 lung, with M14 melanoma, with SNB-19 CNS, in the assay on KM12 colon, with NCI-H226 lung and with SF-295 CNS was > 100 µM in each case. Moreover, the TGI in the assay with SNB-75 CNS, with IGROV1 ovarian and in the assay with HS 578T breast was > 100 µM throughout.

`COc1cc2c(cc1OCCCN1CCN(CCCOc3cc4c(cc3OC)C(=O)N3CCC[C@H]3C=N4)CC1)C=CC(C)(C)O2`: the GI50 with NCI-H23 lung was 1.53 µM; in the assay on M14 melanoma, 1.34 µM; in the assay with SNB-19 CNS, 2.22 µM; in the assay with KM12 colon it was 0.904 µM; in the assay with SNB-75 CNS, 1.26 µM; with MALME-3M melanoma it was 1.9 µM. The GI50 with IGROV1 ovarian was 0.606 µM. For the same compound, the TGI is 3.04 µM in the assay with NCI-H23 lung; 2.62 µM in the assay with M14 melanoma; 2.14 µM in the assay on KM12 colon; 2.74 µM in the assay with SNB-75 CNS; 3.65 µM in the assay with MALME-3M melanoma; > 100 µM in the assay with IGROV1 ovarian.

Take `C1=C(c2ccccc2)CN(c2ccccc2)OC1`: the TGI in the assay on NCI-H23 lung, with M14 melanoma, in the assay with SNB-19 CNS, in the assay on KM12 colon, in the assay on NCI-H226 lung and in the assay on SNB-75 CNS was > 100 µM in each case. The TGI in the assay on MALME-3M melanoma and in the assay on IGROV1 ovarian was > 100 µM each time.
